≈ marks a conversion by molar mass, not a printed value.
What was measured:
HEY = experiment: Cytotoxicity against human HEY cells; assay type: functional, cell-based
[1] = Cytotoxicity against human U373 cells; assay type: functional, cell-based, U-373MG ATCC; details: U373 MG

Row | Structure (SMILES) | IC50 (HEY; read-out: IC50) [µg/mL] | IC50 ([1]; read-out: IC50) [µg/mL] | IC50 (HEY) [µg/mL] | IC50 [1] [µg/mL]
1 | C/C1=C\[C@H](C)C[C@H](C)OC(=O)[C@H](C)NC(=O)[C@@H](Cc2ccc(O)c(I)c2)N(C)C(=O)[C@H](C)NC(=O)[C@@H](C)C1 [GEODIAMOLIDE A] | 43 (≈ 67 µM) | 16 (≈ 24.9 µM) | – | –
2 | C=C1C[C@H](C)C(=O)N[C@@H](C)C(=O)N(C)[C@H](Cc2ccc(O)c(I)c2)C(=O)N[C@@H](C)C(=O)O[C@@H](C)C[C@@H](C)C1=O [GEODIAMOLIDE G] | – | – | 8.6 (≈ 13.1 µM) | 7.7 (≈ 11.7 µM)
